Experimental data: the NIST ThermoML archive (doi:10.1016/j.fluid.2007.08.010)
± gives the expanded uncertainty stated by the source.

Assay: xn = mol fraction of the nth substance listed
Conditions: Liquid, Falling or rolling sphere viscometry

CCCCCCCCCCCCCC [tetradecane] + c1ccccc1
viscosity [mPa·s]
Conditions	690 kPa	5000 kPa	10000 kPa	20000 kPa	30000 kPa	40000 kPa	50000 kPa	60000 kPa
313.2 K, x2 = 0.179	1.393 ± 0.057	1.461 ± 0.06	1.538 ± 0.063	1.695 ± 0.069	1.86 ± 0.076	2.036 ± 0.083	2.224 ± 0.091	2.434 ± 0.1
313.2 K, x2 = 0.436	1.103 ± 0.045	1.159 ± 0.047	1.223 ± 0.05	1.347 ± 0.055	1.473 ± 0.06	1.6 ± 0.065	1.729 ± 0.071	1.866 ± 0.076
313.2 K, x2 = 0.602	0.905 ± 0.037	0.955 ± 0.039	1.011 ± 0.041	1.118 ± 0.046	1.225 ± 0.05	1.329 ± 0.054	1.432 ± 0.058	1.535 ± 0.063
313.2 K, x2 = 0.798	0.679 ± 0.028	0.712 ± 0.029	0.753 ± 0.031	0.835 ± 0.034	0.916 ± 0.037	1 ± 0.041	1.081 ± 0.044	1.16 ± 0.047
333.2 K, x2 = 0.179	1.045 ± 0.043	1.098 ± 0.045	1.157 ± 0.047	1.273 ± 0.052	1.389 ± 0.057	1.515 ± 0.062	1.657 ± 0.068	1.846 ± 0.076
333.2 K, x2 = 0.436	0.838 ± 0.034	0.884 ± 0.036	0.935 ± 0.038	1.037 ± 0.042	1.135 ± 0.046	1.228 ± 0.05	1.319 ± 0.054	1.421 ± 0.058
333.2 K, x2 = 0.602	0.688 ± 0.028	0.728 ± 0.03	0.775 ± 0.032	0.862 ± 0.035	0.946 ± 0.039	1.032 ± 0.042	1.115 ± 0.045	1.216 ± 0.05
333.2 K, x2 = 0.798	0.528 ± 0.022	0.557 ± 0.023	0.592 ± 0.024	0.661 ± 0.027	0.73 ± 0.03	0.797 ± 0.032	0.863 ± 0.035	0.927 ± 0.038
353.2 K, x2 = 0.179	0.819 ± 0.034	0.855 ± 0.035	0.904 ± 0.037	0.996 ± 0.041	1.08 ± 0.044	1.168 ± 0.048	1.278 ± 0.052	1.391 ± 0.057
353.2 K, x2 = 0.436	0.614 ± 0.025	0.662 ± 0.027	0.705 ± 0.029	0.793 ± 0.032	0.883 ± 0.036	0.956 ± 0.039	1.032 ± 0.042	1.116 ± 0.046
353.2 K, x2 = 0.602	0.537 ± 0.022	0.566 ± 0.023	0.601 ± 0.025	0.668 ± 0.027	0.739 ± 0.03	0.809 ± 0.033	0.878 ± 0.036	0.959 ± 0.039
353.2 K, x2 = 0.798	0.421 ± 0.017	0.443 ± 0.018	0.469 ± 0.019	0.523 ± 0.021	0.578 ± 0.024	0.634 ± 0.026	0.69 ± 0.028	0.745 ± 0.03
373.2 K, x2 = 0.179	0.596 ± 0.024	0.635 ± 0.026	0.678 ± 0.028	0.765 ± 0.031	0.849 ± 0.035	0.926 ± 0.038	1.001 ± 0.041	1.07 ± 0.044
373.2 K, x2 = 0.436	0.485 ± 0.02	0.515 ± 0.021	0.549 ± 0.022	0.62 ± 0.025	0.688 ± 0.028	0.753 ± 0.031	0.819 ± 0.033	0.879 ± 0.036
373.2 K, x2 = 0.602	0.43 ± 0.018	0.452 ± 0.018	0.477 ± 0.019	0.533 ± 0.022	0.59 ± 0.024	0.646 ± 0.026	0.704 ± 0.029	0.761 ± 0.031
373.2 K, x2 = 0.798	0.356 ± 0.015	0.371 ± 0.015	0.389 ± 0.016	0.427 ± 0.017	0.467 ± 0.019	0.509 ± 0.021	0.553 ± 0.023	0.598 ± 0.024
393.2 K, x2 = 0.179	0.466 ± 0.019	0.495 ± 0.02	0.531 ± 0.022	0.601 ± 0.025	0.67 ± 0.027	0.738 ± 0.03	0.804 ± 0.033	0.868 ± 0.036
393.2 K, x2 = 0.436	0.394 ± 0.016	0.419 ± 0.017	0.445 ± 0.018	0.496 ± 0.02	0.554 ± 0.023	0.61 ± 0.025	0.662 ± 0.027	0.717 ± 0.029
393.2 K, x2 = 0.602	0.347 ± 0.014	0.368 ± 0.015	0.39 ± 0.016	0.436 ± 0.018	0.479 ± 0.02	0.524 ± 0.021	0.565 ± 0.023	0.604 ± 0.025
393.2 K, x2 = 0.798	0.307 ± 0.013	0.32 ± 0.013	0.336 ± 0.014	0.367 ± 0.015	0.398 ± 0.016	0.432 ± 0.018	0.466 ± 0.019	0.499 ± 0.02
